Experimental data published in US6967079B2, “Pyrimidine derivatives for labeled binding partners” (ISIS Pharmaceuticals, Inc., priority 1993, dated 2005).

Assay: Fluorescence excitation and emission wavelengths
Assay type: physicochemical
Parameters: unit not given here
Settings: deoxyriboside compound

Substance: 2′-Deoxphenothiazine [phenothiazine deoxyriboside]
- emission wavelength (EM): 492
